Assay results from ChEMBL document CHEMBL5537198, “Discovery and Characterization of a Bicyclic Peptide (Bicycle) Binder to Thymic Stromal Lymphopoietin” (J Med Chem, 2024).

Key:
in vivo [1] = details: Wistar Han, rat, iv
in vivo [2] = details: Wistar Han, rat, iv; remark: listed apart in the source
in vivo [3] = details: Wistar Han, rat, iv; remark: listed apart in the source
in vivo [4] = details: Wistar Han, rat, at 0.6 to 2 µmol/kg
in vivo [5] = details: Wistar Han, rat, lung
in vitro [6] = details: Wistar Han, rat, lung S9 fraction
in vitro [7] = details: rat, plasma
in vivo [8] = details: Wistar Han, rat, urine, iv; at 0.6 to 2 µmol/kg
in vitro [9] = details: rat, plasma; remark: listed apart in the source
in vitro [10] = details: human, lung S9 fraction

Structure (SMILES)	clearance (in vivo [1])	Vd (in vivo [2])	half-life (in vivo [3])	bioavailability (in vivo [4])	MRT (in vivo [5])	half-life at 1 h, 10 µM (in vitro [6])	remaining at 18 h (in vitro [7])	dose excreted (in vivo [8])	remaining at 2 h (in vitro [9])	half-life (in vitro [10])
CC(=O)N[C@H]1CSCCC(=O)N2CN3CN(C2)C(=O)CCSC[C@H](NC(=O)[C@H](CC(=O)O)NC(=O)[C@H](CCC(=O)O)NC(=O)[C@H](CC(C)C)NC(=O)[C@H](Cc2c[nH]c4ccccc24)NC(=O)[C@H](CCC(N)=O)NC1=O)C(=O)N[C@@H](Cc1c[nH]c2ccccc12)C(=O)N[C@@H](CCCNC(=N)N)C(=O)NCC(=O)N[C@@H](Cc1ccc(F)cc1)C(=O)N[C@H](C(=O)N[C@@H](C)C(N)=O)CSCCC3=O	42 mL/min/kg	0.3 L/kg	5 min	3.4%	1.2 h	144 min	> 50%	–	–	–
CC(=O)N[C@H]1CSCCC(=O)N2CN3CN(C2)C(=O)CCSC[C@H](NC(=O)[C@H](CC(=O)O)NC(=O)[C@H](CCC(=O)O)NC(=O)[C@H](CC(C)(C)C)NC(=O)C(Cc2cn(C)c4ccccc24)NC(=O)[C@H](CCC(N)=O)NC1=O)C(=O)N[C@@H](Cc1cn(C)c2ccccc12)C(=O)N[C@@H](CCCNC(=N)N(C)C)C(=O)NCC(=O)N[C@@H](Cc1ccc(F)cc1)C(=O)N[C@H](C(N)=O)CSCCC3=O (some centres undefined)	12 mL/min/kg	0.42 L/kg	26 min	24.7%	1.3 h	–	> 50%	1%	–	–
CC(=O)N[C@H]1CSCCC(=O)N2CN3CN(C2)C(=O)CCSC[C@@H](NC(=O)[C@H](CC(N)=O)NC(=O)[C@H](CCC(=O)O)NC(=O)[C@H](CC(C)C)NC(=O)[C@H](Cc2c[nH]c4ccccc24)NC(=O)[C@H](Cc2c[nH]cn2)NC1=O)C(=O)N[C@@H](Cc1c[nH]c2ccccc12)C(=O)N[C@@H](CCCNC(=N)N)C(=O)NCC(=O)N[C@@H](Cc1ccccc1)C(=O)N[C@H](C(N)=O)CSCCC3=O	–	–	–	–	–	< 5 min	–	–	90%	< 5 min
CC(=O)N[C@H]1CSCCC(=O)N2CN3CN(C2)C(=O)CCSC[C@H](NC(=O)[C@H](CC(=O)O)NC(=O)[C@H](CCC(N)=O)NC(=O)[C@H](CC(C)(C)C)NC(=O)[C@H](Cc2cn(C)c4ccccc24)NC(=O)[C@H](C)N(C)C1=O)C(=O)N[C@@H](Cc1cn(C)c2ccccc12)C(=O)N[C@@H](CCCNC(=N)N(C)C)C(=O)NCC(=O)N[C@@H](Cc1ccc(F)cc1)C(=O)N[C@H](C(N)=O)CSCCC3=O	–	–	–	–	–	143 min	> 50%	–	–	–
CC(=O)N[C@H]1CSCCC(=O)N2CN3CN(C2)C(=O)CCSC[C@H](NC(=O)[C@H](CC(N)=O)NC(=O)[C@H](CCC(=O)O)NC(=O)[C@H](CC(C)C)NC(=O)[C@H](Cc2c[nH]c4ccccc24)NC(=O)[C@H](Cc2c[nH]cn2)NC1=O)C(=O)N[C@@H](Cc1c[nH]c2ccccc12)C(=O)N[C@@H](CCCNC(=N)N)C(=O)NCC(=O)N[C@@H](Cc1ccccc1)C(=O)N[C@H](C(N)=O)CSCCC3=O	6.3 mL/min/kg	0.6 L/kg	66 min	33.9%	> 24 h	–	> 50%	64%	–	–
CC(=O)N[C@H]1CSCCC(=O)N2CN3CN(C2)C(=O)CCSC[C@@H]2NC(=O)[C@H](CC(=O)O)NC(=O)[C@H](CCC(=O)O)NC(=O)[C@H](CC(C)C)NC(=O)[C@H](CC/C=C/CC[C@H](NC(=O)[C@H](Cc4c[nH]c5ccccc45)NC2=O)C(=O)NCC(=O)N[C@@H](Cc2ccc(F)cc2)C(=O)N[C@H](C(N)=O)CSCCC3=O)NC(=O)[C@H](CCC(N)=O)NC1=O	46 mL/min/kg	0.21 L/kg	3 min	5.9%	0.5 h	48 min	> 50%	0.1%	–	–
CC(=O)N[C@H]1CSCCC(=O)N2CN3CN(C2)C(=O)CCSC[C@H](NC(=O)[C@H](CC(=O)O)NC(=O)[C@H](CCC(N)=O)NC(=O)[C@H](CC(C)(C)C)NC(=O)[C@H](Cc2cccc4ccccc24)NC(=O)[C@H](C)N(C)C1=O)C(=O)N[C@@H](Cc1cn(C)c2ccccc12)C(=O)N[C@@H](CCCNC(=N)N(C)C)C(=O)NCC(=O)N[C@@H](Cc1ccc(F)cc1)C(=O)N[C@H](C(=O)N[C@@H](C)C(N)=O)CSCCC3=O	6.4 mL/min/kg	0.41 L/kg	45 min	23%	2.4 h	–	> 50%	0.9%	–	–
CC(=O)N[C@H]1CSCCC(=O)N2CN3CN(C2)C(=O)CCSC[C@@H]2NC(=O)[C@H](CC(=O)O)NC(=O)[C@H](CCC(=O)O)NC(=O)[C@H](CC(C)C)NC(=O)[C@H](CCCCCC[C@H](NC(=O)[C@H](Cc4c[nH]c5ccccc45)NC2=O)C(=O)NCC(=O)N[C@@H](Cc2ccc(F)cc2)C(=O)N[C@H](C(N)=O)CSCCC3=O)NC(=O)[C@H](CCC(N)=O)NC1=O	–	–	–	–	–	34 min	> 50%	–	–	–
CC(=O)N[C@H]1CSCCC(=O)N2CN3CN(C2)C(=O)CCSC[C@H](NC(=O)[C@H](CC(=O)O)NC(=O)[C@H](CCC(=O)O)NC(=O)[C@H](CC(C)C)NC(=O)[C@H](Cc2cccc4ccccc24)NC(=O)[C@H](CCC(N)=O)NC1=O)C(=O)N[C@@H](Cc1c[nH]c2ccccc12)C(=O)N[C@@H](CCCNC(=N)N(C)C)C(=O)NCC(=O)N[C@@H](Cc1ccc(F)cc1)C(=O)N[C@H](C(=O)N[C@@H](C)C(N)=O)CSCCC3=O	23 mL/min/kg	0.23 L/kg	7 min	8.6%	2.2 h	–	> 50%	0.3%	–	–
CC(=O)N[C@H]1CSCCC(=O)N2CN3CN(C2)C(=O)CCSC[C@H](NC(=O)[C@H](CC(=O)O)NC(=O)[C@H](CCC(=O)O)NC(=O)[C@H](CC(C)C)NC(=O)[C@H](Cc2cccc4ccccc24)NC(=O)[C@H](CCC(N)=O)NC1=O)C(=O)N[C@@H](Cc1c[nH]c2ccccc12)C(=O)N[C@@H](CCCNC(=N)N(C)C)C(=O)NCC(=O)N[C@@H](Cc1ccc(F)cc1)C(=O)N[C@H](C(N)=O)CSCCC3=O	–	–	–	–	–	83 min	> 50%	–	–	–
CC(=O)N[C@H]1CSCCC(=O)N2CN3CN(C2)C(=O)CCSC[C@H](NC(=O)[C@@H](CC(=O)O)NC(=O)[C@H](CCC(=O)O)NC(=O)[C@H](CC(C)C)NC(=O)[C@H](Cc2c[nH]c4ccccc24)NC(=O)[C@@H](CCC(N)=O)NC1=O)C(=O)N[C@@H](Cc1c[nH]c2ccccc12)C(=O)N[C@@H](CCCNC(=N)N)C(=O)NCC(=O)N[C@@H](Cc1ccc(F)cc1)C(=O)N[C@H](C(=O)O)CSCCC3=O	45 mL/min/kg	0.13 L/kg	2 min	2.3%	1 h	67 min	> 50%	–	–	–
CC(=O)N[C@H]1CSCCC(=O)N2CN3CN(C2)C(=O)CCSC[C@H](NC(=O)[C@H](CC(=O)O)NC(=O)[C@H](CCC(N)=O)NC(=O)[C@H](CC(C)(C)C)NC(=O)[C@H](Cc2cn(C)c4ccccc24)NC(=O)[C@H](CCC(N)=O)NC1=O)C(=O)N[C@@H](Cc1cn(C)c2ccccc12)C(=O)N[C@@H](CCCNC(=N)N(C)C)C(=O)NCC(=O)N[C@@H](Cc1ccc(F)c(Cl)c1)C(=O)N[C@H](C(N)=O)CSCCC3=O	6.4 mL/min/kg	0.32 L/kg	35 min	22.5%	1.8 h	92 min	> 50%	0.8%	–	–
CC(=O)N[C@H]1CSCCC(=O)N2CN3CN(C2)C(=O)CCSC[C@H](NC(=O)[C@H](CC(=O)O)NC(=O)[C@H](CCC(=O)O)NC(=O)[C@H](CC(C)C)NC(=O)[C@H](Cc2c[nH]c4ccccc24)NC(=O)[C@H](CCC(N)=O)NC1=O)C(=O)N[C@@H](Cc1c[nH]c2ccccc12)C(=O)N[C@@H](CCCNC(=N)N)C(=O)NCC(=O)N[C@@H](Cc1ccc(F)cc1)C(=O)N[C@H](C(N)=O)CSCCC3=O	–	–	–	–	–	35 min	> 50%	–	–	–
